Among the data in US20170305943A1, “COMPOUNDS FOR THE TREATMENT OF BACTERIAL INFECTIONS” (priority 2014, published 2017) are MIC values, retold here.

Each structure is given as a SMILES string. Values after ≈ are worked out from the molar mass of the structure shown.

For this experiment, the system named is Clostridium difficile (Isolate ID ATCC 9689). As to the kind of experiment: Bacterial Assay: Determination of Antibacterial Activity (MIC, broth microdilution or agar dilution). In kind it is cell-based. To be noted: Clostridioides difficile, ATCC9689, 48 h, read-out: C. difficile MIC Activity Range. How it is done:
Bacterial Assay: Determination of Antibacterial Activity Compounds of the invention were tested for antimicrobial activity by susceptibility testing in liquid or on solid media. Minimum inhibitory concentrations (MICs) for compounds against each strain were determined by the broth microdilution or agar dilution method according to the guidelines of the Clinical Laboratories and Standards Institute, formerly the National Committee for Clinical Laboratory Standards (Clinical Laboratories and Standards Institute. Methods for Dilution Antimicrobial Susceptibility Tests for Bacteria That Grow Anaerobically; Approved Standard-Seventh Edition. Document M11-A7, CLSI, Wayne, Pa., 2007, Clinical Laboratories and Standards Institute). Briefly MICs were determined by visible inspection after 48 hours of growth in the presence of compounds, cultures were grown at 37° C. in anaerobic gas packs using reinforced clostridial medium supplemented with 0.1% defribrinated horse blood. The bacterial strains tested include C. difficile (Clostridium difficile (Isolate ID ATCC 9689)) (Table 2) and two drug resistant clinical isolates (Clostridium difficile (Isolate ID BI-9) and Clostridium difficile (Isolate ID 027-01) (Table 3).
MICs were determined to be within the activity ranges “A” activity≦1.01 μg/mL; “B” activity>1.0 μg/mL-4.0 μg/mL; “C” activity>4.0 μg/mL-16 μg/mL
In general, MIC refers to the lowest concentration found to suppress growth. Consider `NC(=O)c1c(F)ccc(O[C@H](CO)c2nc(-c3ccc(C(F)(F)F)cc3)c(Br)o2)c1F` (racemic) [Compound 32, 3-(1-{5-bromo-4-[4-(trifluoromethyl)phenyl]-1,3-oxazol-2-yl}-2-hydroxyethoxy)-2,6-difluorobenzamide], for which the MIC is < 1.01 µg/mL.
The same measure for `NC(=O)c1c(F)ccc(OC(COC(=O)Nc2cccnc2)c2nc(-c3ccc(C(F)(F)F)cc3)c(Br)o2)c1F` (racemic) [Compound 64, 2-{5-bromo-4-[4-(trifluoromethyl)phenyl]-1,3-oxazol-2-yl}-2-(3-carbamoyl-2,4-difluorophenoxy)ethyl pyridin-3-ylcarbamate]: < 1.01 µg/mL.
As for `NC(=O)c1c(F)ccc(OC(CNC(=O)OCc2ccccc2)c2nc(-c3ccc(C(F)(F)F)cc3)c(Br)o2)c1F` (racemic) [Compound 93, benzyl [2-{5-bromo-4-[4-(trifluoromethyl)phenyl]-1,3-oxazol-2-yl}-2-(3-carbamoyl-2,4-difluorophenoxy)ethyl]carbamate], the MIC was 1 to 4 µg/mL (≈ 1.56 to 6.25 µM).
Consider `COC(=O)NCC(Oc1ccc(F)c(C(N)=O)c1F)c1nc(-c2ccc(C(F)(F)F)cc2)c(Br)o1` (racemic) [Compound 94, methyl [2-{5-bromo-4-[4-(trifluoromethyl)phenyl]-1,3-oxazol-2-yl}-2-(3-carbamoyl-2,4-difluorophenoxy)ethyl]carbamate], for which the MIC fell in the range of 1 to 4 µg/mL (≈ 1.77 to 7.09 µM).
The same measure for `CCNC(=O)NCC(Oc1ccc(F)c(C(N)=O)c1F)c1nc(-c2ccc(C(F)(F)F)cc2)c(Br)o1` (racemic) [Compound 95, 3-(1-{5-bromo-4-[4-(trifluoromethyl)phenyl]-1,3-oxazol-2-yl}-2-[(ethylcarbamoyl)amino]ethoxy)-2,6-difluorobenzamide]: < 1.01 µg/mL.
Turning to `NC(=O)c1c(F)ccc(OC(CNC(=O)c2ccccc2)c2nc(-c3ccc(C(F)(F)F)cc3)c(Br)o2)c1F` (racemic) [Compound 96, 3-[2-(benzoylamino)-1-{5-bromo-4-[4-(trifluoromethyl)phenyl]-1,3-oxazol-2-yl}ethoxy]-2,6-difluorobenzamide], the MIC was < 1.01 µg/mL.
As for `NC(=O)c1c(F)ccc(OC(CNC(=O)c2cccnc2)c2nc(-c3ccc(C(F)(F)F)cc3)c(Br)o2)c1F` (racemic) [Compound 97, N-[2-{5-bromo-4-[4-(trifluoromethyl)phenyl]-1,3-oxazol-2-yl}-2-(3-carbamoyl-2,4-difluorophenoxy)ethyl]pyridine-3-carboxamide], the MIC is 1 to 4 µg/mL (≈ 1.64 to 6.54 µM).
As to `NC(=O)c1c(F)ccc(OC(CNC(=O)c2ccccn2)c2nc(-c3ccc(C(F)(F)F)cc3)c(Br)o2)c1F` (racemic) [Compound 98, N-[2-{5-bromo-4-[4-(trifluoromethyl)phenyl]-1,3-oxazol-2-yl}-2-(3-carbamoyl-2,4-difluorophenoxy)ethyl]pyridine-2-carboxamide], the MIC is 1 to 4 µg/mL (≈ 1.64 to 6.54 µM).
Turning to `NC(=O)c1c(F)ccc(OC(CO)c2nc(-c3ccc(Cl)s3)c(Br)o2)c1F` (racemic) [Compound 101, 3-{1-[5-bromo-4-(5-chlorothiophen-2-yl)-1,3-oxazol-2-yl]-2-hydroxyethoxy}-2,6-difluorobenzamide], the MIC fell in the range of 1 to 4 µg/mL (≈ 2.08 to 8.34 µM).
Regarding `CCCCCCCCCOc1ccc(Cl)c(C(N)=O)c1F` [Compound 2, 6-chloro-2-fluoro-3-(nonyloxy)benzamide], the minimal inhibitory concentration (MIC) was < 1.01 µg/mL.
With `CCCCCC/C=C/COc1ccc(F)c(C(N)=O)c1F` [Compound 3, 2,6-difluoro-3-[(2E)-non-2-en-1-yloxy]benzamide] the figure was < 1.01 µg/mL.
Regarding `CCCCCCOCCOc1ccc(F)c(C(N)=O)c1F` [Compound 4, 2,6-difluoro-3[2-(hexyloxy)ethoxy]benzamide], the MIC lay in the range of 1 to 4 µg/mL (≈ 3.32 to 13.3 µM).
The same measure for `CCCCCCCCCOc1ccc(F)c(C(N)=O)c1Cl` [Compound 5, 2-chloro-6-fluoro-3-(nonyloxy)benzamide]: < 1.01 µg/mL; for `CC/C=C\CCCCCOc1ccc(F)c(C(N)=O)c1F` [Compound 6, 2,6-difluoro-3-[(6Z)-non-6-en-1-yloxy]benzamide]: < 1.01 µg/mL.
For `NC(=O)c1c(F)ccc(OCc2nc(-c3ccc(Cl)cc3)no2)c1F` [Compound 13, 3-{[3-(4-chlorophenyl)-1,2,4-oxadiazol-5-yl]methoxy}-2,6-difluorobenzamide], the MIC lay within 1 to 4 µg/mL (≈ 2.73 to 10.9 µM).
As to `C=CCc1ccc2sc(COc3ccc(F)c(C(N)=O)c3F)nc2c1` [Compound 14, 2,6-difluoro-3-{[5-(prop-2-en-1-yl)-1,3-benzothiazol-2-yl]methoxy}benzamide], the MIC was in the range of 4 to 16 µg/mL (≈ 11.1 to 44.4 µM).
For `NC(=O)c1c(F)ccc(OCc2nc(-c3ccc(F)cc3)cs2)c1F` [Compound 15, 2,6-difluoro-3-{[4-(4-fluorophenyl)-1,3-thiazol-2-yl]methoxy}benzamide], the MIC was in the range of 1 to 4 µg/mL (≈ 2.74 to 11 µM).
With `Cc1ccc(-c2nc(CCOc3ccc(F)c(C(N)=O)c3F)c(C)o2)cc1` [Compound 18, 2,6-difluoro-3-{2-[5-methyl-2-(4-methylphenyl)-1,3-oxazol-4-yl]ethoxy}benzamide] the figure was 1 to 4 µg/mL (≈ 2.69 to 10.7 µM); with `COc1ccc(-c2nc(COc3ccc(F)c(C(N)=O)c3F)oc2Br)cc1` [Compound 22, 3-{[5-bromo-4-(4-methoxyphenyl)-1,3-oxazo1-2-yl]methoxy}-2,6-difluorobenzamide], < 1.01 µg/mL; with `COc1ncc(-c2csc(C(C)Oc3ccc(F)c(C(N)=O)c3F)n2)s1` (stereo not drawn) [Compound 23, 2,6-difluoro-3-[1-(2′-methoxy-4,5′-bi-1,3-thiazol-2-yl)ethoxy]benzamide], 4 to 16 µg/mL (≈ 10.1 to 40.3 µM).
Turning to `COc1ccc(-c2nc(C(C)Oc3ccc(F)c(C(N)=O)c3F)oc2Br)cc1` (stereo not drawn) [Compound 24, 3-{1-[5-bromo-4-(4-methoxyphenyl)-1,3-oxazol-2-yl]ethoxy}-2,6-difluorobenzamide], the MIC was < 1.01 µg/mL.
For the molecule `NC(=O)c1c(F)ccc(OC(CO)c2nc(-c3ccc(Cl)cc3)cs2)c1F` (stereo not drawn) [Compound 25, 3-{1-[4-(4-chlorophenyl)-1,3-thiazol-2-yl]-2-hydroxyethoxy}-2,6-difluorobenzamide], the MIC is 4 to 16 µg/mL (≈ 9.74 to 38.9 µM).
With `C=CCc1oc(C(C)Oc2ccc(F)c(C(N)=O)c2F)nc1-c1ccc(OC(F)(F)F)cc1` (stereo not drawn) [Compound 26, 2,6-difluoro-3-(1-{5-(prop-2-en-1-yl)-4-[4-(trifluoromethoxy)phenyl]-1,3-oxazol-2-yl}ethoxy)benzamide] the figure was 4 to 16 µg/mL (≈ 8.54 to 34.2 µM); with `CCC(Oc1ccc(F)c(C(N)=O)c1F)c1nc(-c2ccc(Cl)cc2)c(Br)o1` (stereo not drawn) [Compound 27, 3-{1-[5-bromo-4-(4-chlorophenyl)-1,3-oxazol-2-yl]propoxy}-2,6-difluorobenzamide], 1 to 4 µg/mL (≈ 2.12 to 8.48 µM); with `CCCc1oc(C(C)Oc2ccc(F)c(C(N)=O)c2F)nc1-c1ccc(OC(F)(F)F)cc1` (stereo not drawn) [Compound 28, 2,6-difluoro-3-(1-{5-propyl-4-[4-(trifluoromethoxy)phenyl]-1,3-oxazol-2-yl}ethoxy)benzamide], 4 to 16 µg/mL (≈ 8.5 to 34 µM).
On to `CC(Oc1ccc(F)c(C(N)=O)c1F)c1nc(-c2ccc(C(F)(F)F)cc2)c(Br)o1` (stereo not drawn) [Compound 29, 3-(1-{5-bromo-4-[4-(trifluoromethyl)phenyl]-1,3-oxazol-2-yl}ethoxy)-2,6-difluorobenzamide], for which the MIC was < 1.01 µg/mL.
With `CC(Oc1ccc(F)c(C(N)=O)c1F)c1nc(-c2ccc(Cl)cc2)ns1` (stereo not drawn) [Compound 30, 3-{1-[3-(4-chlorophenyl)-1,2,4-thiadiazol-5-yl]ethoxy}-2,6-difluorobenzamide] the figure was < 1.01 µg/mL.
Take `CC(=O)OCC(Oc1ccc(F)c(C(N)=O)c1F)c1nc(-c2ccc(C(F)(F)F)cc2)c(Br)o1` (stereo not drawn) [Compound 31, 2-{5-bromo-4-[4-(trifluoromethyl)phenyl]-1,3-oxazol-2-yl}-2-(3-carbamoyl-2,4-difluorophenoxy)ethyl acetate]: the MIC was < 1.01 µg/mL.
`CC(=O)OCC(Oc1ccc(F)c(C(N)=O)c1F)c1nc(-c2ccc(C(F)(F)F)cc2)c(Cl)o1` (stereo not drawn) [Compound 34, 2-(3-carbamoyl-2,4-difluorophenoxy)-2-{5-chloro-4-[4-(trifluoromethyl)phenyl]-1,3-oxazol-2-yl}ethyl acetate]: the MIC was < 1.01 µg/mL.
With `CNCNC(=O)c1c(F)ccc(OC(C)c2nc(-c3ccc(OC(F)(F)F)cc3)c(Cl)o2)c1F` (stereo not drawn) [Compound 35, 3-(1-{5-chloro-4-[4-(trifluoromethoxy)phenyl]-1,3-oxazol-2-yl}ethoxy)-2,6-difluoro-N-[(methylamino)methyl]benzamide] the figure was < 1.01 µg/mL; with `CN(C)CC(=O)OCC(Oc1ccc(F)c(C(N)=O)c1F)c1nc(-c2ccc(C(F)(F)F)cc2)c(Br)o1` (stereo not drawn) [Compound 36, 2-{5-bromo-4-[4-(trifluoromethyl)phenyl]-1,3-oxazol-2-yl}-2-(3-carbamoyl-2,4-difluorophenoxy)ethyl N,N-dimethylglycinate], < 1.01 µg/mL; with `CNCC(=O)OCC(Oc1ccc(F)c(C(N)=O)c1F)c1nc(-c2ccc(Cl)cc2)c(Cl)o1` (stereo not drawn) [Compound 37, 2-(3-carbamoyl-2,4-difluorophenoxy)-2-[5-chloro-4-(4-chlorophenyl)-1,3-oxazol-2-yl]ethyl N-methylglycinate], 4 to 16 µg/mL (≈ 8 to 32 µM).
With `NC(=O)c1c(F)ccc(OC(COC(=O)CN2C(=O)c3ccccc3C2=O)c2nc(-c3ccc(C(F)(F)F)cc3)c(Br)o2)c1F` (stereo not drawn) [Compound 38, 2-{5-bromo-4-[4-(trifluoromethyl)phenyl]-1,3-oxazol-2-yl}-2-(3-carbamoyl-2,4-difluorophenoxy)ethyl (1,3-dioxo-1,3-dihydro-2H-isoindo1-2-yl)acetate], the MIC was < 1.01 µg/mL.
